Earlier results in US20220395547A1, “LIPOSOMAL FORMULATIONS FOR DELIVERY OF CANNABINOIDS AND METHODS OF MAKING THEREOF” (Vella Bioscience, Inc., priority 2019, published 2022).

Tested on: microorganisms
Conditions: known from the art

## CC(O)CO (stereo not shown) [propylene glycol]
  Concentration at which antimicrobial activity is present: ≥ 20%
